According to BigSolDB 2.1:

CC(C)=CCC[C@@H](C)[C@H]1CC[C@@]2(C)C3=C(CC[C@]12C)[C@@]1(C)CC[C@H](O)C(C)(C)[C@@H]1CC3
Conditions | solubility (mole fraction)
in DMF, 277.15 K | 0.00035
in DMF, 284.65 K | 0.00051
in DMF, 289.15 K | 0.00063
in DMF, 294.65 K | 0.00073
in DMF, 297.35 K | 0.00089
in DMF, 300.15 K | 0.00103
in DMF, 303.05 K | 0.00138
in DMF, 308.46 K | 0.00187
in DMF, 318.55 K | 0.00294
in DMSO, 293.95 K | 0.00015
in DMSO, 297.65 K | 0.00019
in DMSO, 302.35 K | 0.00024
in DMSO, 307.15 K | 0.00031
in DMSO, 312.95 K | 0.00042
in DMSO, 318.69 K | 0.00057
in DMSO, 337.99 K | 0.00136
in acetone, 278.65 K | 0.00066
in acetone, 283.75 K | 0.00087
in acetone, 288.45 K | 0.00105
in acetone, 293.25 K | 0.00127
in acetone, 298.05 K | 0.00157
in acetone, 302.75 K | 0.00193
in acetone, 307.55 K | 0.00237
in acetone, 318.36 K | 0.0036
in acetonitrile, 277.09 K | 3e-05
in acetonitrile, 288.55 K | 6e-05
in acetonitrile, 293.35 K | 9e-05
in acetonitrile, 298.15 K | 0.00013
in acetonitrile, 303.05 K | 0.00015
in acetonitrile, 307.55 K | 0.00019
in acetonitrile, 312.25 K | 0.00026
in acetonitrile, 317.05 K | 0.00038
in ethanol, 277.95 K | 0.00036
in ethanol, 285.74 K | 0.00053
in ethanol, 293.45 K | 0.00075
in ethanol, 298.25 K | 0.00092
in ethanol, 307.15 K | 0.00135
in ethanol, 312.35 K | 0.00168
in ethanol, 318.05 K | 0.00214
in ethyl acetate, 277.67 K | 0.00076
in ethyl acetate, 288.55 K | 0.00127
in ethyl acetate, 293.25 K | 0.00165
in ethyl acetate, 298.05 K | 0.00187
in ethyl acetate, 302.85 K | 0.00235
in ethyl acetate, 307.45 K | 0.00284
in ethyl acetate, 318.64 K | 0.00443
in isopropanol, 278.07 K | 0.00047
in isopropanol, 287.81 K | 0.0006
in isopropanol, 298.84 K | 0.00095
in isopropanol, 307.27 K | 0.00159
in methanol, 277.78 K | 3e-05
in methanol, 288.15 K | 5e-05
in methanol, 298.15 K | 9e-05
in methanol, 303.05 K | 0.00011
in methanol, 312.15 K | 0.00016
in methanol, 316.95 K | 0.00021
in methanol, 321.65 K | 0.00032
in n-propanol, 278.07 K | 0.0009
in n-propanol, 287.81 K | 0.00144
in n-propanol, 298.84 K | 0.00209
in n-propanol, 307.27 K | 0.00304
in n-propanol, 318.93 K | 0.00478
